Reference: ChEMBL document CHEMBL1697781, “Assessment of the health effects of chemicals in humans: II. Construction of an adverse effects database for QSAR modeling” (Curr Drug Discov Technol, 2004)

The molecules below were run on Hepatotoxicity (assay: FDA HLAED, liver enzyme composite activity). Settings: human.
With C#C[C@]1(O)CC[C@H]2[C@@H]3CCc4cc(OC)ccc4[C@H]3CC[C@@]21C [MESTRANOL] the “Composite Activity - Active” value was 0 and the “Composite Activity - Marginal” value was 0. For O=C(CCCN1CCC(O)(c2ccc(Cl)cc2)CC1)c1ccc(F)cc1 [HALOPERIDOL], the “Composite Activity - Active” value was 0 and the “Composite Activity - Marginal” value was 0. In the case of CCC(=O)OCC(=O)[C@@]1(OC(=O)CC)[C@@H](C)C[C@H]2[C@@H]3CCC4=CC(=O)C=C[C@]4(C)[C@@]3(F)[C@@H](O)C[C@@]21C [BETAMETHASONE DIPROPIONATE], the “Composite Activity - Active” value is reported as 0 and the “Composite Activity - Marginal” value is reported as 0. For CC(=O)O[C@]1(C(C)=O)CC[C@H]2[C@@H]3C=C(C)C4=CC(=O)CC[C@]4(C)[C@H]3CC[C@@]21C [MEGESTROL ACETATE], the “Composite Activity - Active” value was 0 and the “Composite Activity - Marginal” value was 0. Cc1nnc(SCC2=C(C(=O)O)N3C(=O)[C@@H](NC(=O)Cn4cnnn4)[C@H]3SC2)s1 [CEFAZOLIN] was tested, and the “Composite Activity - Active” value was 0 and the “Composite Activity - Marginal” value was 0. CCC(=O)O[C@]1(C(=O)COC(C)=O)CC[C@H]2[C@@H]3C[C@H](C)C4=CC(=O)C=C[C@]4(C)[C@H]3[C@@H](O)C[C@@]21C [METHYLPREDNISOLONE ACEPONATE] was tested, and the “Composite Activity - Active” value was 0 and the “Composite Activity - Marginal” value was 0. With CC(=O)O[C@]1(C(C)=O)CC[C@H]2[C@@H]3C[C@H](C)C4=CC(=O)CC[C@]4(C)[C@H]3CC[C@@]21C [MEDROXYPROGESTERONE ACETATE] the “Composite Activity - Active” value was 0 and the “Composite Activity - Marginal” value was 0. O=C(O)C1N=C(c2ccccc2)c2cc(Cl)ccc2NC1=O (stereo unspecified) [CLORAZEPIC ACID] was tested, and the “Composite Activity - Active” value was 0 and the “Composite Activity - Marginal” value was 0. For CN1[C@@H]2CC[C@H]1C[C@@H](OC(c1ccccc1)c1ccccc1)C2 [BENZTROPINE], the “Composite Activity - Active” value was 0 and the “Composite Activity - Marginal” value was 0. For N[C@@H](Cc1ccc(N(CCCl)CCCl)cc1)C(=O)O, the “Composite Activity - Active” value was 0 and the “Composite Activity - Marginal” value was 0. For CC(=O)OCC(=O)[C@@]1(OC(=O)c2ccco2)[C@H](C)C[C@H]2[C@@H]3CCC4=CC(=O)C=C[C@]4(C)[C@@]3(F)[C@@H](O)C[C@@]21C [DEXAMETHASONE ACEFURATE], the “Composite Activity - Active” value was 0 and the “Composite Activity - Marginal” value was 0. For O=c1[nH]c(=O)n([C@H]2C[C@H](O)[C@@H](CO)O2)cc1F [FLOXURIDINE], the “Composite Activity - Active” value was 0 and the “Composite Activity - Marginal” value was 0. For C[C@]12C=CC(=O)C=C1CC[C@@H]1[C@@H]2C(=O)C[C@@]2(C)[C@H]1CC[C@]2(O)C(=O)CO [PREDNISONE], the “Composite Activity - Active” value was 0 and the “Composite Activity - Marginal” value was 0. In the case of CN1CCN(CCCN2c3ccccc3Sc3ccc(C(F)(F)F)cc32)CC1 [TRIFLUOPERAZINE], the “Composite Activity - Active” value is reported as 0 and the “Composite Activity - Marginal” value is reported as 0. For CCCCC(=O)O[C@]1(C(=O)CO)[C@H](C)C[C@H]2[C@@H]3CCC4=CC(=O)C=C[C@]4(C)[C@@]3(F)[C@@H](O)C[C@@]21C [DEXAMETHASONE VALARATE], the “Composite Activity - Active” value was 0 and the “Composite Activity - Marginal” value was 0. With CN1C(=O)CCS(=O)(=O)C1c1ccc(Cl)cc1 (stereo unspecified) [CHLORMEZANONE] the “Composite Activity - Active” value was 0 and the “Composite Activity - Marginal” value was 0.

Same assay, conditions: human, Liver
CC1=C(C(=O)O)N2C(=O)[C@@H](NC(=O)[C@H](N)c3ccccc3)[C@H]2SC1 [CEPHALEXIN ANHYDROUS] was tested, and the “Composite Activity - Active” value was 0 and the “Composite Activity - Marginal” value was 0. In the case of N[C@@H]1C[C@H]1c1ccccc1.N[C@H]1C[C@@H]1c1ccccc1 [TRANYLCYPROMINE], the “Composite Activity - Active” value is reported as 0 and the “Composite Activity - Marginal” value is reported as 0.
